This is an account of results in ChEMBL document CHEMBL5214910, “Rational Design of Dipicolylamine-Containing Carbazole Amphiphiles Combined with Zn2+ as Potent Broad-Spectrum Antibacterial Agents with a Membrane-Disruptive Mechanism” (J Med Chem, 2021).

For series [1], the system named is Staphylococcus aureus. The series is described as follows: Induction of drug resistance in Staphylococcus aureus ATCC 29213 assessed as fold change in MIC incubated for 17 days. Type of series: functional. To be noted: time 17.0 day.
Series [2] deals with Staphylococcus aureus. The series is described as follows: Antibacterial activity against Methicillin-resistant Staphylococcus aureus NCTC10442 assessed as inhibition of bacterial growth incubated for 24 hrs by Muller hinton broth based dilution assay. Format: functional.
The subject of series [3] is Escherichia coli. The series is described as follows: Antibacterial activity Escherichia coli ATCC 25922 assessed as inhibition of bacterial growth incubated for 24 hrs in the presence of 12.5 ug/mL Zn2+ by Muller hinton broth based dilution assay. Type of series: functional.
Series [4] relates to Acinetobacter baumannii. The series is described as follows: Antibacterial activity against Acinetobacter baumannii R2889 assessed as inhIbition of bacterial growth incubated for 24 hrs by Muller hinton broth based dilution assay. Format: functional.
Series [5] relates to Staphylococcus aureus. The series is described as follows: Antibacterial activity against Staphylococcus aureus ATCC 29213 in cyclophosphamide immunosuppressed C57BL/6 mouse model of bacterial keratitis assessed as log reduction in viable bacterial count in infected cornea at 5 % pre-infected with bacteria for 24 hrs followed by topical administration of compound four times a day for 3 days. Type of series: functional. As to conditions: route top, time 3 day.

The subject of series [6] is Acinetobacter baumannii. The series is described as follows: Antibacterial activity against Acinetobacter baumannii R2889 assessed as inhIbition of bacterial growth incubated for 24 hrs in the presence of 12.5 ug/mL Zn2+ by Muller hinton broth based dilution assay. Type of series: functional.
Series [7] concerns Escherichia coli. The series is described as follows: Antibacterial activity Escherichia coli ATCC 25922 assessed as inhibition of bacterial growth incubated for 24 hrs by Muller hinton broth based dilution assay. Type of series: functional.
In series [8] the test system is Pseudomonas aeruginosa. The series is described as follows: Antibacterial activity Pseudomonas aeruginosa ATCC 9027 assessed as inhibition of bacterial growth incubated for 24 hrs in the presence of 12.5 ug/mL Zn2+ by Muller hinton broth based dilution assay. Type of series: functional.
Series [9] relates to Acinetobacter baumannii. The series is described as follows: Antibacterial activity against Acinetobacter baumannii ATCC 17978 assessed as inhIbition of bacterial growth incubated for 24 hrs by Muller hinton broth based dilution assay. Format: functional.
Series [10] concerns Staphylococcus aureus. The series is described as follows: Antibacterial activity against Methicillin-resistant Staphylococcus aureus N315 assessed as inhibition of bacterial growth incubated for 24 hrs in the presence of 12.5 ug/mL Zn2+ by Muller hinton broth based dilution assay. Format: functional.
For series [11], the system named is Staphylococcus aureus. The series is described as follows: Antibacterial activity against Staphylococcus aureus ATCC 29213 assessed as inhibition of bacterial growth incubated for 24 hrs in the presence of 12.5 ug/mL Zn2+ by Muller hinton broth based dilution assay. Format: functional.
The subject of series [12] is Staphylococcus aureus. The series is described as follows: Antibacterial activity against Methicillin-resistant Staphylococcus aureus N315 assessed as inhibition of bacterial growth incubated for 24 hrs by Muller hinton broth based dilution assay. Type of series: functional.
Series [13] deals with Staphylococcus aureus. The series is described as follows: Antibacterial activity against Staphylococcus aureus ATCC 29213 assessed as inhibition of bacterial growth incubated for 24 hrs by Muller hinton broth based dilution assay. Format: functional.
Series [14] relates to Pseudomonas aeruginosa. The series is described as follows: Antibacterial activity Pseudomonas aeruginosa ATCC 9027 assessed as inhibition of bacterial growth incubated for 24 hrs by Muller hinton broth based dilution assay. Type of series: functional.
Series [15] concerns Staphylococcus aureus. The series is described as follows: Antibacterial activity against Methicillin-resistant Staphylococcus aureus NCTC10442 assessed as inhibition of bacterial growth incubated for 24 hrs in the presence of 12.5 ug/mL Zn2+ by Muller hinton broth based dilution assay. Type of series: functional.
Series [16] relates to Acinetobacter baumannii. The series is described as follows: Antibacterial activity against Acinetobacter baumannii ATCC 17978 assessed as inhIbition of bacterial growth incubated for 24 hrs in the presence of 12.5 ug/mL Zn2+ by Muller hinton broth based dilution assay. Type of series: functional.
Series [17] deals with Escherichia coli. The series is described as follows: Induction of drug resistance in Escherichia coli ATCC 25922 assessed as fold change in MIC incubated for 15 days. To be noted: time 15.0 day. Type of series: functional.
Series [18] deals with Pseudomonas aeruginosa. The series is described as follows: Antibacterial activity against Pseudomonas aeruginosa ATCC 9027 in C57BL/6 mouse model of bacterial keratitis assessed as log reduction in viable bacterial count in infected cornea at 0.3 % pre-infected with bacteria for 24 hrs followed by topical administration of compound four times a day for 3 days. Type of series: functional. To be noted: route top, time 3 day.

Series [19] is described as follows: Hemolytic activity in rabbit RBC incubated for 1 hrs by fluorescence based microplate reader assay. Type of series: toxicity, cell-based, Oryctolagus cuniculus, Erythrocyte. To be noted: rabbit red blood cells (erythrocytes).
The nature of series [20]: Hemolytic activity in rabbit RBC incubated for 1 hrs in the presence of 12.5 ug/mL Zn2+ by fluorescence based microplate reader assay. To be noted: rabbit red blood cells (erythrocytes). Format: toxicity, cell-based, Oryctolagus cuniculus, Erythrocyte.

Values after ≈ are worked out from the molar mass of the structure shown.

Consider `CCn1cc(C(=O)O)c(=O)c2cc(F)c(N3CCNCC3)cc21`, for which, in the series on Staphylococcus aureus [1], the fold change (FC) was 32.
By MIC is commonly meant the lowest concentration that inhibits growth of the organism. On to `CN[C@H](CC(C)C)C(=O)N[C@H]1C(=O)N[C@@H](CC(N)=O)C(=O)N[C@H]2C(=O)N[C@H]3C(=O)N[C@H](C(=O)N[C@H](C(=O)O)c4cc(O)cc(O)c4-c4cc3ccc4O)[C@H](O)c3ccc(c(Cl)c3)Oc3cc2cc(c3O[C@@H]2O[C@H](CO)[C@@H](O)[C@H](O)[C@H]2O[C@H]2C[C@](C)(N)[C@H](O)[C@H](C)O2)Oc2ccc(cc2Cl)[C@H]1O` [VANCOMYCIN], for which the minimum inhibitory concentration (MIC) is 1.56 µg/mL (≈ 1.08 µM) in the series with Staphylococcus aureus [2]; greater than 50 µg/mL with Escherichia coli [3]; greater than 50 µg/mL in the series with Acinetobacter baumannii [4]; greater than 50 µg/mL with Acinetobacter baumannii [6]; greater than 50 µg/mL with Escherichia coli [7]; greater than 50 µg/mL with Pseudomonas aeruginosa [8]. In addition, the MIC with Acinetobacter baumannii [9] was 50 µg/mL (≈ 34.5 µM); in the series on Staphylococcus aureus [10] it was 1.56 µg/mL; in the series with Staphylococcus aureus [11] it was 0.78 µg/mL; in the series with Staphylococcus aureus [12], 1.56 µg/mL (≈ 1.08 µM); in the series on Staphylococcus aureus [13], 0.78 µg/mL (≈ 0.538 µM); in the series on Pseudomonas aeruginosa [14], greater than 50 µg/mL. For the same compound, the figures for the minimal inhibitory concentration (MIC) in the series on Staphylococcus aureus [15] and in the series on Acinetobacter baumannii [16] were 1.56 µg/mL and 50 µg/mL, respectively. Also, the “log(activity)” value in the series on Staphylococcus aureus [5] came to 5.4.
For `CC1(C)S[C@@H]2[C@H](NC(=O)[C@H](N)c3ccc(O)cc3)C(=O)N2[C@H]1C(=O)O`, the fold change (FC) with Escherichia coli [17] was 16.
In the case of `COc1c(N2CCNC(C)C2)c(F)cc2c(=O)c(C(=O)O)cn(C3CC3)c12` (stereo unspecified) [GATIFLOXACIN], the “log(activity)” value in the series on Pseudomonas aeruginosa [18] came to 3.03.
A word on the HC50: it is the concentration giving 50% haemolysis. In the case of `Cn1c2ccccc2c2c(OCC(O)CN(Cc3ccccn3)Cc3ccccn3)cccc21` (stereo unspecified), the minimum inhibitory concentration (MIC) with Staphylococcus aureus [2] was determined as 12.5 µg/mL (≈ 27.6 µM); in the series with Escherichia coli [3], 50 µg/mL; in the series on Acinetobacter baumannii [4], 25 µg/mL (≈ 55.2 µM); in the series with Acinetobacter baumannii [6] it was 25 µg/mL; with Escherichia coli [7], 50 µg/mL (≈ 110 µM); in the series with Pseudomonas aeruginosa [8], 12.5 µg/mL. Also, the MIC in the series on Acinetobacter baumannii [9] was 12.5 µg/mL (≈ 27.6 µM); with Staphylococcus aureus [10], 1.56 µg/mL; in the series with Staphylococcus aureus [11], 3.12 µg/mL; in the series on Staphylococcus aureus [12], 6.25 µg/mL (≈ 13.8 µM); in the series on Staphylococcus aureus [13], 12.5 µg/mL (≈ 27.6 µM); with Pseudomonas aeruginosa [14], greater than 50 µg/mL. The values for the minimum inhibitory concentration (MIC) with Staphylococcus aureus [15] and with Acinetobacter baumannii [16] were 6.25 µg/mL and 12.5 µg/mL, respectively. For the same compound, the 50% haemolytic concentration (HC50) at 1 h in [19] and in series [20] was greater than 200 µg/mL throughout.
For the compound `CCCCCn1c2ccccc2c2c(OCC(O)CN(Cc3ccccn3)Cc3ccccn3)cccc21` (stereo unspecified), the minimum inhibitory concentration (MIC) in the series with Staphylococcus aureus [2] came to 1.56 µg/mL (≈ 3.07 µM); in the series with Escherichia coli [3], 1.56 µg/mL; in the series on Acinetobacter baumannii [4], 3.12 µg/mL (≈ 6.14 µM); in the series on Acinetobacter baumannii [6] it was 3.12 µg/mL; in the series with Escherichia coli [7], 6.25 µg/mL (≈ 12.3 µM); in the series on Pseudomonas aeruginosa [8] it was 6.25 µg/mL. Further, the MIC in the series with Acinetobacter baumannii [9] is 3.12 µg/mL (≈ 6.14 µM); in the series on Staphylococcus aureus [10] it was 0.78 µg/mL; in the series on Staphylococcus aureus [11], 1.56 µg/mL; with Staphylococcus aureus [12], 1.56 µg/mL (≈ 3.07 µM); in the series with Staphylococcus aureus [13], 1.56 µg/mL (≈ 3.07 µM); with Pseudomonas aeruginosa [14], greater than 50 µg/mL. Besides, the values for the MIC in the series with Staphylococcus aureus [15] and with Acinetobacter baumannii [16] were 0.78 µg/mL and 3.12 µg/mL, respectively. Also, the HC50 at 1 h in [19] and in series [20] was greater than 200 µg/mL each time.
For the compound `CCCCCCCn1c2ccccc2c2c(OCC(O)CN(Cc3ccccn3)Cc3ccccn3)cccc21` (stereo unspecified), the MIC in the series with Staphylococcus aureus [2] was 1.56 µg/mL (≈ 2.91 µM); in the series on Escherichia coli [3] it was 3.12 µg/mL; in the series on Acinetobacter baumannii [4], 25 µg/mL (≈ 46.6 µM); in the series on Acinetobacter baumannii [6] it was 25 µg/mL; in the series on Escherichia coli [7] it was greater than 50 µg/mL; in the series on Pseudomonas aeruginosa [8], greater than 50 µg/mL. In addition, the MIC is greater than 50 µg/mL with Acinetobacter baumannii [9]; 0.78 µg/mL with Staphylococcus aureus [10]; 1.56 µg/mL in the series with Staphylococcus aureus [11]; 1.56 µg/mL (≈ 2.91 µM) in the series on Staphylococcus aureus [12]; 1.56 µg/mL (≈ 2.91 µM) in the series with Staphylococcus aureus [13]; greater than 50 µg/mL with Pseudomonas aeruginosa [14]. For the same compound, the values for the MIC with Staphylococcus aureus [15] and in the series on Acinetobacter baumannii [16] were 1.56 µg/mL and greater than 50 µg/mL, respectively. In addition, the concentration for 50% haemolysis (HC50) at 1 h in series [19] and in series [20] was greater than 200 µg/mL throughout.
